Experiment: xn = mol fraction of the nth substance listed
Conditions: 101 kPa, Liquid

CCCCCCCCCO [nonan-1-ol] + CCCCCCCCO
Conditions | mass density [kg/m3] | viscosity [mPa·s]
283.15 K, x2 = 0 | 835 | 17.44
283.15 K, x2 = 0.1001 | 834.6 | 16.99
283.15 K, x2 = 0.1998 | 834.4 | 16.57
283.15 K, x2 = 0.2999 | 834.1 | 16.21
283.15 K, x2 = 0.4003 | 833.8 | 15.79
283.15 K, x2 = 0.5001 | 833.5 | 15.41
283.15 K, x2 = 0.6001 | 833.2 | 15.01
283.15 K, x2 = 0.7 | 832.9 | 14.55
283.15 K, x2 = 0.8001 | 832.7 | 14.21
283.15 K, x2 = 0.9001 | 832.3 | 13.9
288.15 K, x2 = 0 | 831.5 | 14.27
288.15 K, x2 = 0.1001 | 831.3 | 13.92
288.15 K, x2 = 0.1998 | 831 | 13.61
288.15 K, x2 = 0.2999 | 830.7 | 13.2
288.15 K, x2 = 0.4003 | 830.4 | 12.83
288.15 K, x2 = 0.5001 | 830.1 | 12.5
288.15 K, x2 = 0.6001 | 829.8 | 12.26
288.15 K, x2 = 0.7 | 829.5 | 11.97
288.15 K, x2 = 0.8001 | 829.3 | 11.59
288.15 K, x2 = 0.9001 | 828.9 | 11.33
293.15 K, x2 = 0 | 828.1 | 11.63
293.15 K, x2 = 0.1001 | 827.8 | 11.38
293.15 K, x2 = 0.1998 | 827.6 | 11.12
293.15 K, x2 = 0.2999 | 827.3 | 10.79
293.15 K, x2 = 0.4003 | 827 | 10.55
293.15 K, x2 = 0.5001 | 826.7 | 10.26
293.15 K, x2 = 0.6001 | 826.4 | 10.04
293.15 K, x2 = 0.7 | 826.1 | 9.838
293.15 K, x2 = 0.8001 | 825.8 | 9.525
293.15 K, x2 = 0.9001 | 825.5 | 9.303
298.15 K, x2 = 0 | 824.7 | 9.519
298.15 K, x2 = 0.1001 | 824.4 | 9.353
298.15 K, x2 = 0.1998 | 824.1 | 9.135
298.15 K, x2 = 0.2997 | 823.8 | 8.957
298.15 K, x2 = 0.4003 | 823.5 | 8.749
298.15 K, x2 = 0.4996 | 823.2 | 8.582
298.15 K, x2 = 0.6001 | 822.9 | 8.43
298.15 K, x2 = 0.7 | 822.6 | 8.238
298.15 K, x2 = 0.8001 | 822.4 | 7.976
298.15 K, x2 = 0.9001 | 822 | 7.786
303.15 K, x2 = 0 | 821.3 | 7.806
303.15 K, x2 = 0.1001 | 821 | 7.679
303.15 K, x2 = 0.1998 | 820.7 | 7.537
303.15 K, x2 = 0.2997 | 820.4 | 7.35
303.15 K, x2 = 0.4003 | 820.1 | 7.171
303.15 K, x2 = 0.5001 | 819.8 | 7.057
303.15 K, x2 = 0.6001 | 819.5 | 6.936
303.15 K, x2 = 0.7 | 819.2 | 6.779
303.15 K, x2 = 0.8001 | 818.9 | 6.634
303.15 K, x2 = 0.9001 | 818.6 | 6.494
308.15 K, x2 = 0 | 817.8 | 6.604
308.15 K, x2 = 0.1001 | 817.5 | 6.479
308.15 K, x2 = 0.1998 | 817.2 | 6.356
308.15 K, x2 = 0.2999 | 816.9 | 6.212
308.15 K, x2 = 0.4003 | 816.6 | 6.055
308.15 K, x2 = 0.5001 | 816.3 | 5.963
308.15 K, x2 = 0.6001 | 816 | 5.862
308.15 K, x2 = 0.7 | 815.7 | 5.743
308.15 K, x2 = 0.8001 | 815.4 | 5.625
308.15 K, x2 = 0.9001 | 815 | 5.51
313.15 K, x2 = 0 | 814.3 | 5.668
313.15 K, x2 = 0.1001 | 814 | 5.579
313.15 K, x2 = 0.1998 | 813.7 | 5.458
313.15 K, x2 = 0.2999 | 813.4 | 5.377
313.15 K, x2 = 0.4003 | 813.1 | 5.258
313.15 K, x2 = 0.5001 | 812.8 | 5.181
313.15 K, x2 = 0.6001 | 812.5 | 5.068
313.15 K, x2 = 0.7 | 812.2 | 4.957
313.15 K, x2 = 0.8001 | 812 | 4.872
313.15 K, x2 = 0.9001 | 811.6 | 4.773
